Literature values, collected in US7727757B2, “Methods of eliciting antiviral immune responses utilizing viral particles comprising photoinactivated reverse transcriptase” (priority 1998, dated 2010).
“Also recorded” adds a separate entry of the source.

Experiments:
HIV infected cells = settings: compound provided to HIV infected cells
[1] = target: HIV-1 reverse transcriptase (Human immunodeficiency virus type 1 group M subtype B, UniProt P04585); settings: for inhibition of RT (in words): prior-art statement; for IC50: value stated without method or source, used to set the incubation concentration, read-out: IC50 (50% inhibitory concentration)
HIV = settings: short exposure, without photoinactivation

For `CC(C)=CCOc1cc(NC(=S)c2ccoc2C)ccc1Cl` [UC781™, N-[4-chloro-3-(3-methyl-2-butenyloxy)phenyl]-2-methyl-3-furanocarbothiamide], which “inhibition of ERT in HIV virions” value (ERT in HIV virions) is on record?
The value was “inhibit ERT in HIV virions”.

What about the “infectivity of nascent virus from HIV infected cells” value (HIV infected cells) of the same molecule?
Its value is “production of noninfectious nascent virus; also recorded: inactivate nascent virus from HIV-infected cells”.

And the “inhibition of RT (in words)” value [1]?
The value was “potent inhibitors of RT”.

What about the IC50 [1] of the same molecule?
Its IC50 is 0.2 nM.

And the “HIV infectivity after exposure of isolated virus” value (HIV)?
The value was “eliminate HIV infectivity”.

Which “inhibition of RT (in words)” value [1] does the source give for `CCN1c2cc(N=[N+]=[N-])ccc2N(C)C(=O)c2cccnc21` [azido dipyridodiazepinona, 9-Azido-5,6-dihydro-11-ethyl-6-methyl-11H-pyrido[2,3-b][1,5]benzodiazepin-5-one] here?
Its value is “potent inhibitors of RT”.

What about the IC50 [1] of the same molecule?
Its IC50 is 160 nM.
